According to article PMC9230201, “Sustained Consumption of a Decaffeinated Green Coffee Nutraceutical Has Limited Effects on Phenolic Metabolism and Bioavailability in Overweight/Obese Subjects” (Nutrients, 2022):
Where “and” joins values, the source holds several entries; their conditions need not be identical. Equal values may be shown once.

Legend:
[1] = Fecal excretion of phenolic metabolites after intake of the GCPE nutraceutical; settings: feces
Method: Participants attended the Human Nutrition Unit (HNU) at the Institute of Food Science, Technology and Nutrition (ICTAN-CSIC) on two consecutive days at the beginning of the intervention (week 0) and also on two consecutive days at the end of the study, after consuming daily two doses of the GCPE nutraceutical, providing 600 mg/d phenols, during two months (week 8). […] A licensed health care professional placed an intravenous catheter in the subjects′ nondominant arm and collected a fasting blood sample (baseline, 0 h). Then, subjects drank the soluble GCPE nutraceutical dissolved in 200 mL of water. […] On the sampling days, volunteers remained at the HNU, where a (poly)phenol-free diet was provided. Half an hour after consuming the nutraceutical, volunteers ate a breakfast consisting of ham, cheese, white bread, and a yogurt. Lunch (paella, bread, and yogurt) and an afternoon snack (muffin and yogurt) were eaten 5 and 9 h, respectively, after consuming the nutraceutical. Water and isotonic beverages were freely available. […] The same protocol was followed during visits at the end of the 8-week intervention. On each occasion, two days before each visit to the HNU, subjects consumed a low (poly)phenol diet free of foods containing hydroxycinnamates such as coffee, herbal teas, red wine, artichokes, whole grain cereals, vegetables, fruits and fruit juices, and dried fruits. Only banana, watermelon, cantaloupes, and potatoes were allowed.
(§1) Blood samples were immediately centrifuged (10 min, 3000 rpm, 4 °C) to obtain plasma. […] All biological samples were stored at −80 °C until analysis.
To extract plasma metabolites, 10 µL of 50% (v/v) aqueous formic acid, and 900 µL cold acetonitrile containing 50 µL of 10% (w/v) ascorbic acid were added to 400 µL defrosted plasma. Samples were vortexed and centrifuged (14,000 rpm, 10 min, 4 °C), repeating the extraction and combining the two supernatants, which were reduced to dryness under nitrogen [13]. Dried samples were resuspended in 150 µL of 0.1% aqueous formic acid (containing 10% acetonitrile acidified with 0.1% formic acid), centrifuged (15 min, 14,000 rpm, 4 °C), and the supernatant collected. Urine samples were diluted 1:1 with Milli-Q water and centrifuged (14,000 rpm, 20 min, 4 °C) prior to analysis. Phosphate-buffered saline (3 mL) was added to a representative 300 mg sample of thawed feces, homogenized in an ultrasound bath during 10 min, centrifuged (14,000 rpm, 20 min, 4 °C), and the supernatants collected.
Mobile phase A was 0.1% formic acid in Milli-Q water, and mobile phase B was acetonitrile containing 0.1% formic acid at a 0.3 mL/min flow rate. […] Metabolites were identified based on their retention time using authentic standards when possible. […] Urine concentration of excreted metabolites was normalized to the total volume excreted in each studied interval.
Plasma (30 µL), urine (5 µL) and fecal extracts (5 µL) were filtered through 0.45 µm
cellulose-acetate membrane filters and injected into an Agilent 1200 series LC system
ESI-Jet Stream Technology (Agilent Technologies). A reverse-phase Ascentis Express
C18 (15 cm x 3 mm, 2.7 µm) column (Sigma-Aldrich Quimica, Madrid), preceded by a
phase A was 0.1% formic acid in Milli-Q water, and mobile phase B was acetonitrile
containing 0.1% formic acid at a 0.3 mL/min flow rate. The gradient started with 10% B
at 0 min, 30% B at 10 min, 40% B at 15 min, reaching 50% B at 20 min. The starting
gradient was then re-established in 2 min and maintained for 8 min to re-equilibrate the

[2] = Urinary excretion of phenolic metabolites after intake of the GCPE nutraceutical; settings: for Cumulative urinary excretion, Total 0–24 h / Urinary excretion: urine; for Cumulative urinary excretion, Total 0–24 h: mean ± SEM, n = 9
[3] = Plasma pharmacokinetics of phenolic metabolites after intake of the GCPE nutraceutical (LC-MS-QToF); settings: for AUC(0-t): AUC0–24h; for Tmax: Tmax (h) or Range
Method: Participants attended the Human Nutrition Unit (HNU) at the Institute of Food Science, Technology and Nutrition (ICTAN-CSIC) on two consecutive days at the beginning of the intervention (week 0) and also on two consecutive days at the end of the study, after consuming daily two doses of the GCPE nutraceutical, providing 600 mg/d phenols, during two months (week 8). On each occasion, on the first visit day (Figure 1), subjects arrived at the HNU after an overnight (12 h) fast and provided a urine sample. A licensed health care professional placed an intravenous catheter in the subjects′ nondominant arm and collected a fasting blood sample (baseline, 0 h). Then, subjects drank the soluble GCPE nutraceutical dissolved in 200 mL of water. Subsequently, blood samples were collected in EDTA-coated tubes at 0.5, 1, 1.5, 2, 3, 4, 6, 8, 10, and 11 h. On the sampling days, volunteers remained at the HNU, where a (poly)phenol-free diet was provided. Half an hour after consuming the nutraceutical, volunteers ate a breakfast consisting of ham, cheese, white bread, and a yogurt. Lunch (paella, bread, and yogurt) and an afternoon snack (muffin and yogurt) were eaten 5 and 9 h, respectively, after consuming the nutraceutical. Water and isotonic beverages were freely available. Volunteers were instructed to eat a (poly)phenol-free dinner that night and to attend the HNU on the next day after a 12 h fast. Then, a final blood sample was obtained from the antecubital vein 24 h after consuming the nutraceutical. The same protocol was followed during visits at the end of the 8-week intervention. On each occasion, two days before each visit to the HNU, subjects consumed a low (poly)phenol diet free of foods containing hydroxycinnamates such as coffee, herbal teas, red wine, artichokes, whole grain cereals, vegetables, fruits and fruit juices, and dried fruits. Only banana, watermelon, cantaloupes, and potatoes were allowed.
as §1
To extract plasma metabolites, 10 µL of 50% (v/v) aqueous formic acid, and 900 µL cold acetonitrile containing 50 µL of 10% (w/v) ascorbic acid were added to 400 µL defrosted plasma. Samples were vortexed and centrifuged (14,000 rpm, 10 min, 4 °C), repeating the extraction and combining the two supernatants, which were reduced to dryness under nitrogen [13]. Dried samples were resuspended in 150 µL of 0.1% aqueous formic acid (containing 10% acetonitrile acidified with 0.1% formic acid), centrifuged (15 min, 14,000 rpm, 4 °C), and the supernatant collected.
A reverse-phase Ascentis Express C18 (15 cm × 3 mm, 2.7 µm) column (Sigma-Aldrich Quimica, Madrid, Spain), preceded by a Supelco 55215-U guard column (3 mm × 5 mm, 2.7 µm), was used for separation. Mobile phase A was 0.1% formic acid in Milli-Q water, and mobile phase B was acetonitrile containing 0.1% formic acid at a 0.3 mL/min flow rate. […] Metabolites were identified based on their retention time using authentic standards when possible.

[4] = week 0, GCPE nutraceutical with 300 mg hydroxycinnamic acids, mean ± SEM, n = 9
[5] = week 0, first peak where biphasic
[6] = week 8, GCPE nutraceutical with 300 mg hydroxycinnamic acids, mean ± SEM, n = 9
[7] = week 8, first peak where biphasic

Row | Compound | Amount of fecal metabolite excreted at 0 h ([1]; week 0, mean ± SEM, n = 9) | Amount of fecal metabolite excreted at 0 h ([1]; week 8) | Amount of fecal metabolite excreted at 24 h ([1]; week 0) [µmol/g] | Amount of fecal metabolite excreted at 24 h ([1]; week 8) [µmol/g] | Cumulative urinary excretion, Total 0–24 h ([2]; week 0) | Cumulative urinary excretion, Total 0–24 h ([2]; week 8) | Amount excreted in urine, 0- 3 h ([2]; week 0, interval 0–3 h) [µmol] | Amount excreted in urine, 3-6 h ([2]; week 0, interval 3–6 h) [µmol] | Amount excreted in urine, 6-9 h ([2]; week 0, interval 6–9 h) [µmol] | Amount excreted in urine, 9-11 h ([2]; week 0, interval 9–11 h) [µmol] | Amount excreted in urine, 11-24 h ([2]; week 0, interval 11–24 h) [µmol] | Amount excreted in urine, 0- 3 h ([2]; week 8, interval 0–3 h) [µmol] | Amount excreted in urine, 3-6 h ([2]; week 8, interval 3–6 h) [µmol] | Amount excreted in urine, 6-9 h ([2]; week 8, interval 6–9 h) [µmol] | Amount excreted in urine, 9-11 h ([2]; week 8, interval 9–11 h) [µmol] | Amount excreted in urine, 11-24 h ([2]; week 8, interval 11–24 h) [µmol] | further results
1 | O=C(O)c1ccc(O)c(O)c1 [3,4-Dihydroxybenzoic acid] | 0.016 ± 0.006 µmol/g | 0.026 ± 0.008 µmol/g | 0.018 ± 0.005 | 0.04 ± 0.01 | 0.13 ± 0.02 µmol | 0.18 ± 0.04 µmol | 0.016 ± 0.005 | 0.007 ± 0.003 | 0.017 ± 0.005 | 0.018 ± 0.006 | 0.035 ± 0.009 | 0.03 ± 0.01 | 0.014 ± 0.003 | 0.027 ± 0.007 | 0.018 ± 0.007 | 0.03 ± 0.009 | Amount of fecal metabolite excreted at 0 h ([1]; week 0, mean ± SEM, n = 9, listed as 3,4-dihydroxybenzoic acid): 0.016 µmol/g; Amount of fecal metabolite excreted at 0 h ([1]; week 8, listed as 3,4-dihydroxybenzoic acid): 0.026 µmol/g
2 | COc1cc(/C=C/C(=O)O[C@@H]2C[C@@](O)(C(=O)O)C[C@@H](O)[C@@H]2O)ccc1O [3-Feruloylquinic acid] | 0.003 ± 0.003 µmol/g | 0.0010 ± 0.0007 µmol/g | 0.003 ± 0.003 | 0.003 ± 0.002 | 0.29 ± 0.07 µmol | 0.34 ± 0.07 µmol | 0.15 ± 0.04 | 0.1 ± 0.04 | 0.021 ± 0.006 | 0.007 ± 0.004 | 0.01 ± 0.005 | 0.19 ± 0.04 | 0.08 ± 0.02 | 0.05 ± 0.01 | 0.014 ± 0.008 | 0.015 ± 0.007 | 
3 | O=C(O)Cc1ccc(O)c(O)c1 [3′,4′-Dihydroxyphenylacetic acid] |  |  |  | 0.010 ± 0.008 | 1.2 ± 0.2 µmol | 1.3 ± 0.2 µmol | 0.12 ± 0.03 | 0.08 ± 0.03 | 0.11 ± 0.05 | 0.06 ± 0.02 | 0.38 ± 0.04 | 0.15 ± 0.03 | 0.05 ± 0.02 | 0.08 ± 0.02 | 0.09 ± 0.03 | 0.31 ± 0.03 | 
4 | O=C(CCc1ccc(O)c(O)c1)OC1CC(O)(C(=O)O)CC(O)C1O (stereo not shown) [5-Dihydrocaffeoylquinic acid] | 0.04 ± 0.01 µmol/g | 0.06 ± 0.02 µmol/g | 0.05 ± 0.01 | 0.08 ± 0.02 | 0.03 ± 0.02 µmol | 0.03 ± 0.01 µmol | 0.012 ± 0.006 | 0.005 ± 0.003 | 0.003 ± 0.002 | 0.003 ± 0.002 | 0.01 ± 0.004 | 0.004 ± 0.003 | 0.002 ± 0.001 | 0.002 ± 0.002 | 0.002 ± 0.002 | 0.015 ± 0.008 | 
5 | O=C(O)/C=C/c1ccc(O)c(O)c1 [CA, 3′,4′-Dihydroxycinnamic acid] |  | 0.003 ± 0.002 µmol/g | 0.0003 ± 0.0003 | 0.003 ± 0.003 | 0.42 ± 0.06 µmol | 0.45 ± 0.09 µmol | 0.13 ± 0.03 | 0.08 ± 0.02 | 0.08 ± 0.03 | 0.023 ± 0.008 | 0.12 ± 0.02 | 0.12 ± 0.03 | 0.06 ± 0.01 | 0.11 ± 0.02 | 0.06 ± 0.03 | 0.11 ± 0.03 | 
6 | O=C(O)/C=C/c1ccc(O)cc1 [CoA, 4′-Hydroxycinnamic acid] |  | 0.006 ± 0.004 µmol/g | 0.002 ± 0.002 | 0.003 ± 0.001 |  |  |  |  |  |  |  |  |  |  |  |  | 
7 | O=C(O)CCc1cccc(O)c1 [DHiCoA, 3-(3′-Hydroxyphenyl)propanoic acid] | 0.21 µmol/g and 0.21 ± 0.07 µmol/g | 0.4 µmol/g and 0.4 ± 0.1 µmol/g | 0.24 ± 0.07 | 0.25 ± 0.07 |  |  |  |  |  |  |  |  |  |  |  |  | 
8 | COc1cc(C=CC(=O)O)ccc1OS(=O)(=O)O [FA-4′-sulfate, 3′-Methoxycinnamic acid-4′-sulfate] |  |  |  |  | 32 µmol and 32 ± 5 µmol | 33 µmol and 33 ± 5 µmol | 5 ± 2 | 3.2 ± 0.9 | 7 ± 2 | 3.6 ± 0.7 | 13 ± 2 | 4 ± 2 | 3.4 ± 0.7 | 7 ± 1 | 7 ± 2 | 11 ± 2 | AUC0–24h ([3]; week 0): 0.11 ± 0.03 µM/min; Cmax [3, 4]: 17 ± 4 nM; Tmax, second peak ([3]; week 0, biphasic profile): 408 ± 42 min; Tmax (h) or Range [3, 5]: 0.78 ± 0.09 h; AUC0–24h ([3]; week 8): 0.13 ± 0.02 µM/min; Cmax [3, 6]: 17 ± 4 nM; Tmax, second peak ([3]; week 8, biphasic profile): 432 ± 36 min; Tmax (h) or Range [3, 7]: 0.56 ± 0.06 h; Urinary excretion ([2]; week 0): 32 µmol/24 h; Urinary excretion ([2]; week 8): 33 µmol/24 h
9 | COc1cc(/C=C/C(=O)NCC(=O)O)ccc1O [Feruloylglycine] |  |  |  |  | 19 ± 5 µmol | 25 ± 5 µmol | 1 ± 0.2 | 0.9 ± 0.3 | 4 ± 1 | 2.6 ± 0.9 | 3.9 ± 0.9 | 1 ± 0.3 | 1.2 ± 0.3 | 3 ± 1 | 3 ± 1 | 3 ± 1 | AUC0–24h ([3]; week 0): 0.029 ± 0.007 µM/min; Cmax [3, 4]: Traces ^b; Tmax (h) or Range [3, 5]: 7 ± 1 h; AUC0–24h ([3]; week 8): 0.026 ± 0.004 µM/min; Cmax [3, 6]: Traces ^b; Tmax (h) or Range [3, 7]: 8.4 ± 0.6 h; Cmax ([3]; weeks 0 and 8 not distinguished): trace levels; Cumulative urinary excretion, Total 0–24 h ([2]; week 0, listed as feruloylglycine): 19 µmol; Cumulative urinary excretion, Total 0–24 h ([2]; week 8, listed as feruloylglycine): 25 µmol; Amount excreted in urine, TOTAL ([2]; week 0, Table S5 total): 19 ± 5 µmol; Amount excreted in urine, 0 h ([2]; week 8, 0 h (before intake on sampling day)): 14 ± 4 µmol; Amount excreted in urine, TOTAL ([2]; week 8, Table S6 total): 25 ± 5 µmol
10 | COc1ccc(/C=C/C(=O)O)cc1O [iFA, 3′-Hydroxy-4′-methoxycinnamic acid] |  |  |  |  | 1.7 ± 0.2 µmol | 2.1 ± 0.2 µmol | 1 ± 0.2 | 0.35 ± 0.07 | 0.27 ± 0.07 | 0.04 ± 0.03 | 0.04 ± 0.02 | 1.2 ± 0.2 | 0.32 ± 0.04 | 0.39 ± 0.07 | 0.13 ± 0.07 | 0.09 ± 0.04 | AUC(0-t) ([3]; human, oral, 300 mg hydroxycinnamic acids, week 0): 0.025 ± 0.007 µM·h; AUC(0-t) ([3]; human, oral, 300 mg hydroxycinnamic acids, week 8): 0.043 ± 0.008 µM·h; Tmax ([3]; human, oral, 300 mg hydroxycinnamic acids, week 0, first peak where biphasic): 30 ± 6 min; Tmax ([3]; human, oral, 300 mg hydroxycinnamic acids, week 8, first peak where biphasic): 30 min; AUC(0-t) ([3]; human, oral, 300 mg phenols, week 0): 0.025 µM·h; AUC(0-t) ([3]; human, oral, 300 mg phenols, week 8): 0.043 µM·h; Cmax ([3]; human, oral, 300 mg, Cmax, week 0, GCPE nutraceutical with 300 mg hydroxycinnamic acids, mean ± SEM, n = 9): 23 ± 6 nM; Cmax ([3]; human, oral, 300 mg, Cmax, week 8, GCPE nutraceutical with 300 mg hydroxycinnamic acids, mean ± SEM, n = 9): 32 ± 7 nM
